For this assay, the system named is MV-4-11 cells. Kind of assay: Gene expression microarray analysis (Affymetrix PrimeView) and GSEA. Type of assay: cell-based, human. Set-up: RFU PODN (11730768_x_at) / Fold change /veh PODN (11730768_x_at) / RFU LINC00158 (11744669_a_at) / Fold change /veh LINC00158 (11744669_a_at) / RFU DUSP10 (11751237_a_at) / Fold change /veh DUSP10 (11751237_a_at) / RFU ID3 (11757404_x_at) / Fold change /veh ID3 (11757404_x_at) / RFU PLEKHG5 (11737974_s_at) / Fold change /veh PLEKHG5 (11737974_s_at) / RFU LRRC4B (11730491_at) / Fold change /veh LRRC4B (11730491_at) / RFU GIMAP4 (11747438_a_at) / Fold change /veh GIMAP4 (11747438_a_at) / RFU KRT8 (11758183_x_at) / Fold change /veh KRT8 (11758183_x_at) / RFU CNN1 (11734310_a_at) / Fold change /veh CNN1 (11734310_a_at) / RFU VPS37D (11726825_at) / Fold change /veh VPS37D (11726825_at) / RFU C10orf10 (11716522_x_at) / Fold change /veh C10orf10 (11716522_x_at) / RFU KIR2DL2 /// KIR2DL4 /// KIR2DL5A /// KIR2DL5B /// KIR2DS1 /// KIR2DS2 /// KIR2DS3 /// KIR2DS4 /// KIR3DL3 /// KIR3DL3 /// KIR3DS1 (11738374_at) / Fold change /veh KIR2DL2 /// KIR2DL4 /// KIR2DL5A /// KIR2DL5B /// KIR2DS1 /// KIR2DS2 /// KIR2DS3 /// KIR2DS4 /// KIR3DL3 /// KIR3DL3 /// KIR3DS1 (11738374_at) / RFU C1QL1 (11718748_at) / Fold change /veh C1QL1 (11718748_at) / RFU TMPRSS4 (11747572_a_at) / Fold change /veh TMPRSS4 (11747572_a_at) / RFU HAMP (11756126_x_at) / Fold change /veh HAMP (11756126_x_at) / RFU RNFT2 (11725882_a_at) / Fold change /veh RNFT2 (11725882_a_at) / RFU NR4A2 (11747474_a_at) / Fold change /veh NR4A2 (11747474_a_at) / RFU ABCC12 (11746883_a_at) / Fold change /veh ABCC12 (11746883_a_at) / RFU TMEM136 (11760407_x_at) / Fold change /veh TMEM136 (11760407_x_at) / RFU CLDN22 /// WWC2 (11732394_at) / Fold change /veh CLDN22 /// WWC2 (11732394_at) / RFU HLA-DPB1 (11760878_x_at) / Fold change /veh HLA-DPB1 (11760878_x_at) / RFU SPINT1 (11716480_a_at) / Fold change /veh SPINT1 (11716480_a_at) / RFU GAP43 (11754022_s_at) / Fold change /veh GAP43 (11754022_s_at) / RFU A4GNT (11735810_at) / Fold change /veh A4GNT (11735810_at) / RFU PRB3 (11715151_x_at) / Fold change /veh PRB3 (11715151_x_at) / RFU TUBB4B (11761932_at) / Fold change /veh TUBB4B (11761932_at) / RFU CAPN14 (11732068_a_at) / Fold change /veh CAPN14 (11732068_a_at) / RFU TMCC2 (11721928_a_at) / Fold change /veh TMCC2 (11721928_a_at) / RFU IRGQ (11745062_a_at) / Fold change /veh IRGQ (11745062_a_at) / RFU FAM174B (11720279_a_at) / Fold change /veh FAM174B (11720279_a_at) / RFU TMPRSS4 (11748680_a_at) / Fold change /veh TMPRSS4 (11748680_a_at) / RFU FAM212B (11763350_a_at) / Fold change /veh FAM212B (11763350_a_at) / RFU PLEKHG5 (11743358_a_at) / Fold change /veh PLEKHG5 (11743358_a_at) / RFU ZSCAN30 (11745921_a_at) / Fold change /veh ZSCAN30 (11745921_a_at) / RFU CMKLR1 (11741424_a_at) / Fold change /veh CMKLR1 (11741424_a_at) / RFU LOC101060620 /// MAPK8IP1 (11723275_at) / Fold change /veh LOC101060620 /// MAPK8IP1 (11723275_at) / RFU SPTSSB (11747773_x_at) / Fold change /veh SPTSSB (11747773_x_at) / RFU PRSS12 (11739890_at) / Fold change /veh PRSS12 (11739890_at) / RFU BIN1 (11741810_x_at) / Fold change /veh BIN1 (11741810_x_at) / RFU WNT11 (11732464_a_at) / Fold change /veh WNT11 (11732464_a_at) / RFU C10orf10 (11716521_a_at) / Fold change /veh C10orf10 (11716521_a_at) / RFU C5orf56 (11738089_at) / Fold change /veh C5orf56 (11738089_at) / RFU CYB561 (11721691_x_at) / Fold change /veh CYB561 (11721691_x_at) / RFU ANKRD19P (11752326_a_at) / Fold change /veh ANKRD19P (11752326_a_at) / RFU OR2T12 /// OR2T33 /// OR2T8 (11738714_s_at) / Fold change /veh OR2T12 /// OR2T33 /// OR2T8 (11738714_s_at) / RFU VCAN (11748164_a_at) / Fold change /veh VCAN (11748164_a_at) / RFU JSRP1 (11732532_at) / Fold change /veh JSRP1 (11732532_at) / RFU KRTAP10-11 (11738290_x_at) / Fold change /veh KRTAP10-11 (11738290_x_at) / RFU MYO3A (11730013_a_at) / Fold change /veh MYO3A (11730013_a_at) / RFU EBF3 (11725865_a_at) / Fold change /veh EBF3 (11725865_a_at) / RFU CAMK2N1 (11719241_x_at) / Fold change /veh CAMK2N1 (11719241_x_at) / RFU C5orf56 (11738088_a_at) / Fold change /veh C5orf56 (11738088_a_at) / RFU OLFML3 (11715873_a_at) / Fold change /veh OLFML3 (11715873_a_at) / RFU LOC100653217 /// NTM (11731650_a_at) / Fold change /veh LOC100653217 /// NTM (11731650_a_at) / RFU MAPK11 (11762145_a_at) / Fold change /veh MAPK11 (11762145_a_at) / RFU FIZ1 (11724087_x_at) / Fold change /veh FIZ1 (11724087_x_at) / RFU OASL (11726364_x_at) / Fold change /veh OASL (11726364_x_at) / RFU SOX15 (11748057_x_at) / Fold change /veh SOX15 (11748057_x_at) / RFU CD79A (11719716_a_at) / Fold change /veh CD79A (11719716_a_at) / RFU HIST1H1D (11736915_at) / Fold change /veh HIST1H1D (11736915_at) / RFU CASKIN2 (11723855_a_at) / Fold change /veh CASKIN2 (11723855_a_at) / RFU LOC730098 (11760151_x_at) / Fold change /veh LOC730098 (11760151_x_at) / RFU OR4N2 (11742367_at) / Fold change /veh OR4N2 (11742367_at) / RFU PRRT2 (11749266_a_at) / Fold change /veh PRRT2 (11749266_a_at) / RFU SNX32 (11753110_a_at) / Fold change /veh SNX32 (11753110_a_at) / RFU CDHR5 (11726645_a_at) / Fold change /veh CDHR5 (11726645_a_at) / RFU RCAN1 (11760418_a_at) / Fold change /veh RCAN1 (11760418_a_at) / RFU FAM167A (11723789_a_at) / Fold change /veh FAM167A (11723789_a_at) / RFU FAM26E (11764081_at) / Fold change /veh FAM26E (11764081_at) / RFU ISYNA1 (11749810_s_at) / Fold change /veh ISYNA1 (11749810_s_at) / RFU ACY1 (11761880_at) / Fold change /veh ACY1 (11761880_at) / RFU 11764098_at / Fold change /veh 11764098_at / RFU SAMD14 (11745864_x_at) / Fold change /veh SAMD14 (11745864_x_at) / RFU NPB (11741838_a_at) / Fold change /veh NPB (11741838_a_at) / RFU TMPRSS6 (11731388_a_at) / Fold change /veh TMPRSS6 (11731388_a_at) / RFU KRTAP10-2 (11738614_at) / Fold change /veh KRTAP10-2 (11738614_at) / RFU ARHGAP8 /// PRR5-ARHGAP8 (11727945_x_at) / Fold change /veh ARHGAP8 /// PRR5-ARHGAP8 (11727945_x_at) / RFU KRTAP5-7 /// NADSYN1 (11734609_at) / Fold change /veh KRTAP5-7 /// NADSYN1 (11734609_at) / RFU RASL12 (11751679_a_at) / Fold change /veh RASL12 (11751679_a_at) / RFU CDKN2B (11736163_a_at) / Fold change /veh CDKN2B (11736163_a_at) / RFU PRF1 (11729649_at) / Fold change /veh PRF1 (11729649_at) / RFU, ZNF638 /// ZNF638-IT1 / Fold change vs veh, ZNF638 /// ZNF638-IT1 / RFU, PANK3 / Fold change vs veh, PANK3 / RFU, SH3YL1 / Fold change vs veh, SH3YL1 / RFU, ZEB2 / Fold change vs veh, ZEB2 / RFU, NRIP1 / Fold change vs veh, NRIP1 / RFU, PTTG1IP / Fold change vs veh, PTTG1IP / RFU, CAPN2 / Fold change vs veh, CAPN2 / RFU, MED14 / Fold change vs veh, MED14 / RFU, SNORA58 / Fold change vs veh, SNORA58 / RFU, C1orf63 / Fold change vs veh, C1orf63 / RFU, LRRFIP1 / Fold change vs veh, LRRFIP1 / RFU, NDUFAF7 / Fold change vs veh, NDUFAF7 / RFU, SLC12A2 / Fold change vs veh, SLC12A2 / RFU, IBTK / Fold change vs veh, IBTK / RFU, ESF1 / Fold change vs veh, ESF1 / Fold change vs veh, TMEM50B / RFU, TAOK1 / Fold change vs veh, TAOK1 / RFU, ACBD3 / Fold change vs veh, ACBD3 / RFU, TMA16 / Fold change vs veh, TMA16 / RFU, RWDD3 / Fold change vs veh, RWDD3 / RFU, BCAT1 / Fold change vs veh, BCAT1 / RFU, EDEM3 / Fold change vs veh, EDEM3 / RFU, TMEM33 / Fold change vs veh, TMEM33 / RFU, WDR75 / Fold change vs veh, WDR75 / RFU, AHCTF1 / Fold change vs veh, AHCTF1 / RFU, TFRC / Fold change vs veh, TFRC / RFU, ZDHHC17 / Fold change vs veh, ZDHHC17 / RFU, NOM1 / Fold change vs veh, NOM1 / RFU, ARL8B / Fold change vs veh, ARL8B / RFU, ZBTB11 / Fold change vs veh, ZBTB11 / RFU, TAMM41 / Fold change vs veh, TAMM41 / RFU, KIAA1704 /// LOC100996395 / Fold change vs veh, KIAA1704 /// LOC100996395 / RFU, ING1 / Fold change vs veh, ING1 / RFU, TRMT61B / Fold change vs veh, TRMT61B / RFU, FUBP3 / Fold change vs veh, FUBP3 / RFU, TP53 / Fold change vs veh, TP53 / RFU, TNKS2 / Fold change vs veh, TNKS2 / RFU, ZFP14 / Fold change vs veh, ZFP14 / RFU, ACTR2 / Fold change vs veh, ACTR2 / RFU, PPP3R1 / Fold change vs veh, PPP3R1 / RFU, PIK3R1 / Fold change vs veh, PIK3R1 / RFU, HNRNPA1 / Fold change vs veh, HNRNPA1 / RFU, RNF170 / Fold change vs veh, RNF170 / RFU, ZNF28 / Fold change vs veh, ZNF28 / RFU, RNGTT / Fold change vs veh, RNGTT / RFU, OGT / Fold change vs veh, OGT / RFU, BRD1 / Fold change vs veh, BRD1 / RFU, MARS / Fold change vs veh, MARS / RFU, ZNF655 / Fold change vs veh, ZNF655 / RFU, FAHD1 / Fold change vs veh, FAHD1 / RFU, BDP1 / Fold change vs veh, BDP1 / RFU, LRRCC1 / Fold change vs veh, LRRCC1 / RFU, ARID1A / Fold change vs veh, ARID1A / RFU, ZNF146 / Fold change vs veh, ZNF146 / RFU, ZNF330 / Fold change vs veh, ZNF330 / RFU, GPN3 / Fold change vs veh, GPN3 / RFU, C9orf123 / Fold change vs veh, C9orf123 / RFU, N4BP2L2 / Fold change vs veh, N4BP2L2 / RFU, ARFIP1 / Fold change vs veh, ARFIP1 / RFU, FAM179B / Fold change vs veh, FAM179B / RFU, BCL10 / Fold change vs veh, BCL10 / RFU, UHRF1BP1L / Fold change vs veh, UHRF1BP1L / RFU, BET1 / Fold change vs veh, BET1 / RFU, CNOT2 / Fold change vs veh, CNOT2 / RFU, ZNF268 / Fold change vs veh, ZNF268 / Fold change vs veh, ZNF507 / RFU, DGCR2 / Fold change vs veh, DGCR2 / RFU, WDSUB1 / Fold change vs veh, WDSUB1 / Fold change vs veh, HSP90B1 /// MIR3652 / RFU, ADSS / Fold change vs veh, ADSS / RFU, GK / Fold change vs veh, GK / RFU, ZNF148 / Fold change vs veh, ZNF148 / RFU, TAF9 / Fold change vs veh, TAF9 / RFU, SLC1A5 / Fold change vs veh, SLC1A5 / RFU, SLMO2 / Fold change vs veh, SLMO2 / RFU, ABCC4 / Fold change vs veh, ABCC4 / RFU, LOC101060439 /// RAP1B / Fold change vs veh, LOC101060439 /// RAP1B / RFU, RFX7 / Fold change vs veh, RFX7 / RFU, GTPBP10 / Fold change vs veh, GTPBP10 / RFU, CNEP1R1 / Fold change vs veh, CNEP1R1 / RFU, BIVM-ERCC5 /// ERCC5 / Fold change vs veh, BIVM-ERCC5 /// ERCC5 / RFU, ILF3 / Fold change vs veh, ILF3 / RFU 11762660_at / Fold change /veh 11762660_at / RFU VCAN (11757783_s_at) / Fold change /veh VCAN (11757783_s_at) / RFU DDX43 (11728927_at) / Fold change /veh DDX43 (11728927_at) / RFU KRT8 (11758188_x_at) / Fold change /veh KRT8 (11758188_x_at) / RFU NKD1 (11759106_at) / Fold change /veh NKD1 (11759106_at) / RFU SRD5A1 (11742802_a_at) / Fold change /veh SRD5A1 (11742802_a_at) / RFU TPSAB1 /// TPSB2 (11721975_s_at) / Fold change /veh TPSAB1 /// TPSB2 (11721975_s_at) / RFU GSTM3 (11746129_a_at) / Fold change /veh GSTM3 (11746129_a_at) / RFU IL23R (11737362_x_at) / Fold change /veh IL23R (11737362_x_at) / RFU TMEM51 (11727254_a_at) / Fold change /veh TMEM51 (11727254_a_at) / RFU PIWIL2 (11732686_x_at) / Fold change /veh PIWIL2 (11732686_x_at) / RFU ORM1 (11744905_x_at) / Fold change /veh ORM1 (11744905_x_at) / RFU CCDC152 (11743942_at) / Fold change /veh CCDC152 (11743942_at) / RFU ECM1 (11717891_a_at) / Fold change /veh ECM1 (11717891_a_at) / RFU IL23R (11748794_a_at) / Fold change /veh IL23R (11748794_a_at) / RFU TNFAIP8L3 (11732012_x_at) / Fold change /veh TNFAIP8L3 (11732012_x_at) / RFU MBOAT4 (11741988_at) / Fold change /veh MBOAT4 (11741988_at) / RFU 11764193_at / Fold change /veh 11764193_at / RFU TMEM53 (11763286_at) / Fold change /veh TMEM53 (11763286_at) / RFU MAGEB2 (11727129_at) / Fold change /veh MAGEB2 (11727129_at) / RFU TMEM200A (11744735_a_at) / Fold change /veh TMEM200A (11744735_a_at) / RFU CCDC152 (11751479_a_at) / Fold change /veh CCDC152 (11751479_a_at) / RFU FAM211A (11726209_a_at) / Fold change /veh FAM211A (11726209_a_at) / RFU RGS16 (11746705_a_at) / Fold change /veh RGS16 (11746705_a_at) / RFU VCAN (11755009_s_at) / Fold change /veh VCAN (11755009_s_at) / RFU RHOB (11743442_s_at) / Fold change /veh RHOB (11743442_s_at) / RFU RGS16 (11720943_a_at) / Fold change /veh RGS16 (11720943_a_at) / RFU RGS16 (11720944_at) / Fold change /veh RGS16 (11720944_at) / RFU, VPS4B / Fold change vs veh, VPS4B / RFU, CREB1 / Fold change vs veh, CREB1 / RFU, DNAJC13 / Fold change vs veh, DNAJC13 / RFU, GNAQ / Fold change vs veh, GNAQ / RFU, CDK5R1 / Fold change vs veh, CDK5R1 / RFU, ZRANB3 / Fold change vs veh, ZRANB3 / RFU, CUL4A / Fold change vs veh, CUL4A / RFU, CCNY / Fold change vs veh, CCNY / RFU, UFL1 / Fold change vs veh, UFL1 / RFU, COG3 / Fold change vs veh, COG3 / RFU, DIAPH2 / Fold change vs veh, DIAPH2 / RFU, SKA2 / Fold change vs veh, SKA2 / RFU, AFF3 / Fold change vs veh, AFF3 / RFU, LMF1 / Fold change vs veh, LMF1 / RFU, IPO11 / Fold change vs veh, IPO11 / RFU, DFFB / Fold change vs veh, DFFB / RFU, FOXP1 / Fold change vs veh, FOXP1 / RFU, CARD8 / Fold change vs veh, CARD8 / RFU, STRN3 / Fold change vs veh, STRN3 / RFU, ADK / Fold change vs veh, ADK / RFU, RASSF2 / Fold change vs veh, RASSF2 / RFU, WIPF1 / Fold change vs veh, WIPF1 / RFU, LARP1B / Fold change vs veh, LARP1B / RFU, RASA1 / Fold change vs veh, RASA1 / RFU, RB1 / Fold change vs veh, RB1 / RFU, PPFIA1 / Fold change vs veh, PPFIA1 / RFU, MAT2A / Fold change vs veh, MAT2A / RFU, CCT5 / Fold change vs veh, CCT5 / RFU, WDR92 / Fold change vs veh, WDR92 / RFU, CUX1 / Fold change vs veh, CUX1 / RFU, TTC7A / Fold change vs veh, TTC7A / RFU, TMEM135 / Fold change vs veh, TMEM135 / RFU, DEPTOR / Fold change vs veh, DEPTOR / RFU, CPM / Fold change vs veh, CPM / RFU, DNAJB6 / Fold change vs veh, DNAJB6 / RFU, CACNA2D3 / Fold change vs veh, CACNA2D3 / RFU, DTX4 / Fold change vs veh, DTX4 / RFU, TFCP2 / Fold change vs veh, TFCP2 / RFU, GMCL1 /// GMCL1P1 / Fold change vs veh, GMCL1 /// GMCL1P1 / RFU, AEBP2 / Fold change vs veh, AEBP2 / RFU, SNHG1 /// SNORD22 /// SNORD25 /// SNORD26 /// SNORD27 /// SNORD28 /// SNORD29 /// SNORD31 / Fold change vs veh, SNHG1 /// SNORD22 /// SNORD25 /// SNORD26 /// SNORD27 /// SNORD28 /// SNORD29 /// SNORD31 / Fold change (Aza/veh), C12orf56 (ProbeSet 11735607_a_at) / Fold change (ACY-1035/veh), C12orf56 (ProbeSet 11735607_a_at) / Fold change (Aza/veh), FGFR1OP (ProbeSet 11751329_s_at) / Fold change (ACY-1035/veh), FGFR1OP (ProbeSet 11751329_s_at) / Fold change (Aza/veh), VPS36 (ProbeSet 11739960_a_at) / Fold change (ACY-1035/veh), VPS36 (ProbeSet 11739960_a_at) / RFU SYPL1 (11715823_x_at) / Fold change /veh SYPL1 (11715823_x_at) / RFU IGFBP7 (11715501_s_at) / Fold change /veh IGFBP7 (11715501_s_at) / RFU REEP3 (11722064_at) / Fold change /veh REEP3 (11722064_at) / RFU IGLL1 (11728026_x_at) / Fold change /veh IGLL1 (11728026_x_at): dose or concentration left out as unconfirmed. The following applies: ProbeSet 11725787_a_at; LIST B.

For the compound `Nc1ncn([C@@H]2O[C@H](CO)[C@@H](O)[C@H]2O)c(=O)n1` [azacitidine], the “Fold change vs veh, TMA16” value is 0.94.

Source of the values: PMC5218480 (PLoS ONE, 2017).
